Measurements published in article PMC10348910, “Epigenetic reprogramming of cell cycle genes by ACK1 promotes breast cancer resistance to CDK4/6 inhibitor” (Oncogene, 2023).

Experiments:
[1] = system: 78 targets (cell surface receptors, ion channels, kinases, nuclear hormone receptors, GPCRs and other relevant enzymes); assay: DiscoverX SAFETYscan pharmacological profiling (78 assays)
Description: We performed pharmacological profiling of (R)-9b, to identify undesirable off-target activity profile using DiscoverX SAFETYscan, which has a broad menu containing 78 assays, and provides functional data for cell surface receptors, ion channels, kinases, nuclear hormone receptors, GPCRs and other relevant enzymes, inhibition of which could cause significant toxicity in human clinical trials.

[2] = system: pY88-H4 marks at CDC20, CCNB1 and CCNB2; assay: ChIP-qPCR with pY88-H4 antibody at CDC20, CCNB1 and CCNB2 loci; format: cell-based; details: breast cancer cell lines
Method: Fig. 4 ACK1 epigenetically modifies the chromatin landscape by depositing pY88-H4 activating marks, regulating cell cycle genes. A Breast cancer cell lines were treated with (R)-9b overnight and the cell lysates were subjected to immunoprecipitation using pY88-H4 antibody, followed by immunoblotting with H4 antibody. Lysates were also subjected to immunoblotting with total H4 and Actin antibodies, shown in the lower panels. […] B Venn diagrams summarizing the overlap between sites bound by pY88-H4 in vehicle treated and (R)-9b treated MDA-MB-453 cells. […] Breast cancer cells were subjected to ChIP using pY88-H4 antibody followed by qPCR for (D) CCNB1, (E) CCNB2, and (F) CDC20 genes. […]
Cell pellets were resuspended in RLB buffer and sonicated and the soluble chromatin was incubated with antibodies and Protein-G/A magnetic beads. […] The size and quality of the library was evaluated using the Agilent BioAnalyzer (Agilent Technologies, Inc., Santa Clara, CA), and the library was quantitated with the Kapa Library Quantification Kit. Each enriched DNA library was then sequenced on an Illumina NextSeq 500 sequencer to generate 40–50 million 75-base paired-end reads (Illumina, Inc., San Diego, CA). […]
Real-time quantitative PCR analyses were performed using the ABI PRISM 7900HT Sequence Detection System (Applied Biosystems) as described earlier. […]

BT549 = assay: proliferation assay, trypan blue exclusion; format: cell-based; details: BT549 (lacking Rb), 96 h
Method: (§1) A–F Breast cancer cells were treated with either vehicle or (R)-9b for 48 h; cells were harvested and processed for cell cycle analysis using propidium iodide staining, followed by flow cytometry. G BT549 and H MDA-MB-468 cells were treated with varying drug concentrations of palbociclib or (R)-9b for 96 h and the cell viability assessed using trypan blue exclusion method. I BT549, and J MDA-MB-468 cells were treated with 1 µM palbociclib or (R)-9b for 48 h and subjected to cell cycle analysis using propidium iodide staining, followed by flow-cytometry. Palbociclib-resistant MDA-MB-231 (K) and HCC-1395 (L) were generated and treated with varying drug concentrations of palbociclib or (R)-9b for 96 h and the cell viability assessed using trypan blue exclusion method.
(§2) For proliferation assay, 5 × 10^4 cells were plated in 6-well plate and treated with either vehicle (DMSO) or varying concentrations of (R)-9b or palbociclib in complete media for 96 h and number of viable cells were counted by trypan blue exclusion assay. Breast cancer cell lines were treated with vehicle or varying concentrations of (R)-9b for 72 h. The cells were harvested, washed 2 times with PBS and incubated with 3 ul of Annexin V-FITC antibody according to the manufacturers protocol (BD Biosciences). Five µl Propidium iodide was used to stain necrotic cells. The cells were acquired using the BD FACSCalibur machine (BD Biosciences) and data was analyzed using FlowJo software. Cell cycle analysis was performed as mentioned earlier. Briefly, vehicle or (R)-9b (48 h) treated cells were harvested by trypsinization, washed 2 times with PBS, and fixed using chilled 70% Ethanol for 1 h, followed by 2 washes with PBS. The cell pellets were treated with 50 µl RNase A (100 µg/ml; Sigma) for 15 min at 37 °C and Propidium Iodide (PI; 50 µg/ml, Sigma) was added to these cells, followed by acquisition using BD FACS Canto-II or FACSCalibur machines. The data were analyzed using FlowJo software.

MDA-MB-468 = assay: proliferation assay, trypan blue exclusion; format: cell-based; details: MDA-MB-468 (lacking Rb), 96 h
Method: as §1, §2

## CN1CCN(c2ccc(Nc3ncc(Cl)c(NC[C@H]4CCCO4)n3)cc2)CC1 [(R)-9b]
[1]
  off-target inhibition in SAFETYscan: None of the 78 targets were inhibited significantly
[2]
  pY88-H4 marks at CDC20, CCNB1 and CCNB2 gene loci (ChIP-qPCR): significantly compromised
BT549
  sensitivity (cell proliferation): sensitive
MDA-MB-468
  sensitivity (cell proliferation): sensitive
